Assay results: patent US5506256A, “Proline derivatives possessing prolyl endopeptidase-inhibitory activity” (Yoshitomi Pharmaceutical Industries, Ltd., priority 1990, dated 1996)

Legend:
prolyl endopeptidase = biological target: T1, prolyl endopeptidase (Rattus norvegicus, UniProt O70196); test: Prolyl endopeptidase-inhibitory activity; type: biochemical; details: for IC50: prolyl endopeptidase extracted from rat brain, pH 7.0, 30° C., read-out: IC50
T1 construct: prolyl endopeptidase extracted from rat brain; from tissue; host or cells: rat brain
T1 sequence (O70196 whole entry): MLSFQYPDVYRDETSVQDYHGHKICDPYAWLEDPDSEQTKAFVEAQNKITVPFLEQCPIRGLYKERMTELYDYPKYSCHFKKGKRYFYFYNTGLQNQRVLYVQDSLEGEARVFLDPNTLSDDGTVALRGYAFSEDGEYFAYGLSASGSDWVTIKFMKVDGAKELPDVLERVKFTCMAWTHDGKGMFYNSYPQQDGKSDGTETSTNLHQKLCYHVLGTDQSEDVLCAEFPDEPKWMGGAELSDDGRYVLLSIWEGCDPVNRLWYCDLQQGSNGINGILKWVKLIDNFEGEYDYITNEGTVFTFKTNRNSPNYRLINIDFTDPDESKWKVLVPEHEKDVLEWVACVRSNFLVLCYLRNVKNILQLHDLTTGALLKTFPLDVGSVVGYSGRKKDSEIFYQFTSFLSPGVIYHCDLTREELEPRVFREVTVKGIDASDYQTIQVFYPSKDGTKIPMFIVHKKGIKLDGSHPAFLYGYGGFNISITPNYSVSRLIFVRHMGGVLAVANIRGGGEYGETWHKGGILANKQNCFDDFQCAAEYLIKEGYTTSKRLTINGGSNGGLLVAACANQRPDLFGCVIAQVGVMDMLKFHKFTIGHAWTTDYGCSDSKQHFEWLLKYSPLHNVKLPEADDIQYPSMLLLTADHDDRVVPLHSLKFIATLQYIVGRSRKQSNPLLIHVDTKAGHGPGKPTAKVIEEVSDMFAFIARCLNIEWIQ
Procedure, shortened: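 Rat brain prolyl endopeptidase was preincubated with compound for 30 min at 30 °C in 0.1 M potassium sodium phosphate, pH 7.0. Substrate Suc-Gly-Pro-MCA was then added from a 0.2 mM stock and the reaction run 1 h at 30 °C. After ice stop, fluorescence was read (ex 370/em 440 nm), and IC50 was estimated graphically from % inhibition.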

trypsin = biological target: T2, trypsin (Bos taurus, UniProt P00760); test: Determination of trypsin-inhibitory activity; type: biochemical, bovine; details: read-out: inhibition rate, trypsin
T2 construct: purchased Sigma; host or cells: bovine pancreas
T2 sequence (P00760 24-246): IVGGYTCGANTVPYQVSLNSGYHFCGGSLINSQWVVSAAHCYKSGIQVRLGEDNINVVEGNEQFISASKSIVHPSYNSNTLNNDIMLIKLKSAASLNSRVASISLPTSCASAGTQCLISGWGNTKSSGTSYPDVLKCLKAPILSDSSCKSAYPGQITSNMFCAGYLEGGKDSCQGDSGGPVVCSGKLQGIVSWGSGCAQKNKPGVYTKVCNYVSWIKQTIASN
Procedure, shortened: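 Bovine pancreatic trypsin and compound in 50 mM Tris-HCl pH 8.0 with Pro-Phe-Arg-MCA substrate, 1 h at 30 °C, stopped on ice. Fluorescence at ex 370/em 440 nm. Inhibition rate from compound, no-enzyme and no-compound wells.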

chymotrypsin = biological target: T3, chymotrypsin (Bos taurus, UniProt P00766); test: Determination of chymotrypsin-inhibitory activity; type: biochemical, bovine; details: read-out: inhibition rate, chymotrypsin
T3 construct: purchased Sigma; host or cells: bovine pancreas
Procedure, shortened: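 Bovine pancreatic chymotrypsin (0.2 μM enzyme solution) assayed in 50 mM Tris-HCl, pH 8.0, with the fluorogenic substrate Suc-Leu-Leu-Val-Tyr-MCA. Fluorescence was read with and without inhibitor, and percent inhibition was calculated from the fluorescence values.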

leucine aminopeptidase = test: Determination of leucine aminopeptidase-inhibitory activity; type: biochemical, swine; parameters: unit not given here
Procedure, shortened: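 Swine kidney leucine aminopeptidase ([…] enzyme solution) was measured in 50 mM Tris-HCl pH 8.0 with 7-leucyl-4-methyl-coumarinamide (200 μM substrate solution). Inhibition rate was calculated from fluorescence readings.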

elastase = biological target: T4, elastase (Sus scrofa, UniProt P00772); test: Determination of elastase-inhibitory activity; type: biochemical, swine; details: read-out: inhibition rate, elastase
T4 construct: purchased Sigma; host or cells: swine pancreas
T4 sequence (P00772 27-266): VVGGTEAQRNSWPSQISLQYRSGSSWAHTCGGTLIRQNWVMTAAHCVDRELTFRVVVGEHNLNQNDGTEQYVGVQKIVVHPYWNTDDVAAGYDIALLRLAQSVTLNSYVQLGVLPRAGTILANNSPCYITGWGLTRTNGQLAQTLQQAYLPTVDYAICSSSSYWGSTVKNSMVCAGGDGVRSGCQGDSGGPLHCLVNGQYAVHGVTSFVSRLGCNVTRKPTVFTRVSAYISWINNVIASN
Procedure, shortened: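 Porcine pancreatic elastase (0.2 μM solution) with 200 μM succinyl-Ala-Pro-Ala-4-methylcoumarinamide substrate solution in 1 mM Tris-HCl pH 8.5. Fluorescence measured and inhibition rate calculated by formula.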

cathepsin B = biological target: T5, cathepsin B (Bos taurus, UniProt P07688); test: Determination of cathepsin B-inhibitory activity; type: biochemical, bovine; details: read-out: inhibition rate, cathepsin B
T5 construct: purchased Sigma; host or cells: bovine spleen
Procedure, shortened: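 Bovine spleen cathepsin B (0.02 μM solution) was assayed in 100 mM sodium phosphate, pH 6.0, with 1.33 mM EDTA. The substrate was Z-Phe-Arg-4-methylcoumarinamide (200 μM solution). Percent inhibition was calculated from fluorescence readings.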

[1] = read-out: inhibition rate, prolyl endopeptidase

Structure (SMILES)	inhibition at 1 µM (prolyl endopeptidase; [1])	IC50 (prolyl endopeptidase)	inhibition at 1 µM (trypsin)	inhibition at 1 µM (chymotrypsin)	inhibition rate, leucine aminopeptidase (leucine aminopeptidase; 1 μM)	inhibition at 1 µM (elastase)	inhibition at 1 µM (cathepsin B)	inhibition at 0.1 µM (prolyl endopeptidase; 0.1 μM, read-out: inhibition rate, prolyl endopeptidase)	inhibition at 0.1 µM (trypsin; 0.1 μM)	inhibition at 0.1 µM (chymotrypsin; 0.1 μM)	inhibition rate, leucine aminopeptidase (leucine aminopeptidase; 0.1 μM)	inhibition at 0.1 µM (elastase; 0.1 μM)	inhibition at 0.1 µM (cathepsin B; 0.1 μM)
O=C(COc1ccccc1)[C@@H]1CCCN1C(=O)[C@@H]1CCCN1C(=O)COc1ccccc1 [Compound 46, (2S)-2-(Phenoxyacetyl)-1-[N-(phenoxyacetyl)-L-prolyl]pyrrolidine]	93%	60 nM	0%	0%	0	0%	0%	–	–	–	–	–	–
COc1ccc(OCC(=O)[C@@H]2CCCN2C(=O)[C@@H]2CCCN2C(=O)COc2ccccc2)cc1 [Compound 47, (2S)-2-(4-Methoxyphenoxyacetyl)-1-[N-(phenoxyacetyl)-L-prolyl]pyrrolidine]	98%	50 nM	0%	0%	0	0%	0%	–	–	–	–	–	–
COc1ccc(OCC(=O)[C@@H]2CCCN2C(=O)[C@@H]2CCCN2C(=O)CNc2ccccc2)cc1 [Compound 48, (2S)-2-(4-Methoxyphenoxyacetyl)-1-[N-(N-phenylglycyl)-L-prolyl]pyrrolidine]	90%	60 nM	0%	0%	0	0%	0%	–	–	–	–	–	–
COc1ccc(OCC(=O)[C@@H]2CCCN2C(=O)[C@@H]2CCCN2C(=O)CSc2ccccc2)cc1 [Compound 49, (25)-2-(4-Methoxyphenoxyacetyl)-1-{N-[(phenylthio)acetyl]-L-prolyl}pyrrolidine]	98%	20 nM	0%	0%	0	0%	0%	–	–	–	–	–	–
COc1ccc(OCC(=O)[C@@H]2CCCN2C(=O)[C@@H]2CCCN2C(=O)OCC23CC4CC(CC(C4)C2)C3)cc1 [Compound 50, (2S)-1-{N-[(1-Adamantyl)methoxycarbonyl]-L-prolyl}-2-(4-methoxyphenoxyacetyl)pyrrolidine]	97%	500 nM	0%	0%	0	0%	0%	–	–	–	–	–	–
O=C(COc1ccccc1)[C@@H]1CCCN1C(=O)[C@@H]1CSCN1C(=O)NCc1ccccc1 [Compound 51, (2S)-1-[N-(Benzylaminocarbonyl)-L-thioprolyl]-2-(phenoxyacetyl)pyrrolidine]	98%	15 nM	0%	0%	0	0%	0%	–	–	–	–	–	–
CCOC(=O)CN(Cc1ccccc1)C(=O)N1CCC[C@H]1C(=O)N1CCC[C@H]1C(=O)COc1ccccc1 [Compound 52, (2S)-1-{N-[N-Benzyl-N-(ethoxycarbonylmethyl)aminocarbonyl]-L-prolyl}-2-(phenoxyacetyl)pyrrolidine]	–	2 nM	–	–	–	–	–	97%	0%	0%	0	0%	0%
CCOC(=O)[C@@H](NC(=O)N1CCC[C@H]1C(=O)N1CCC[C@H]1C(=O)COc1ccccc1)c1ccccc1 [Compound 53, (2S)-1-[N-[[(S)-α-(Ethoxycarbonyl)benzylamino]carbonyl]-L-prolyl]-2-(phenoxyacetyl)pyrrolidine]	96%	30 nM	0%	0%	0	0%	0%	–	–	–	–	–	–
O=C(COc1ccccn1)[C@@H]1CCCN1C(=O)[C@@H]1CCCN1C(=O)NCc1ccccc1 [Compound 54, (2S)-1-[N-(Benzylaminocarbonyl)-L-prolyl]-2-[(2-pyridyloxy)acetyl]pyrrolidine]	85%	200 nM	0%	0%	0	0%	0%	–	–	–	–	–	–
